The values below come from patent US20090233841A1, “ANALGESIC CONJUGATES” (Regents of the University of Minnesota, priority 2005, published 2009).

Molecules are shown by their SMILES. Entries after “also recorded” stand apart in the source; their conditions may differ.

The subject of data set [1] is male ICR mice. As to the kind of experiment: Mouse radiant heat tail flick assay after acute ICV administration. The conditions noted are these: for ED50 nmol (95% C.L.), antinociceptive potency / Ligand ED50 pmol (95% C.L.), antinociceptive potency: mouse tail flick, acute ICV administration; for ED50 nmol (95% C.L.), antinociceptive potency: conjugates and coadministration; for Ligand ED50 pmol (95% C.L.), antinociceptive potency: mu control ligands. The format is in vivo. As to the method: Acute drug administration. Drugs were dissolved in sterile saline (0.9% NaCl). Animals were anesthetized with halothane and drugs were administered with a Hamilton syringe mated to a shortened (3 mm) 27-g needle in a volume of 4 μl by ICV injection into the lateral cerebral ventricle (Haley et al., 1957). The injection site was 1.6 mm lateral and 0.6 mm caudal to bregma.
Antinociceptive testing. […] Mice were tested once before injection (control time).
A general note: Thermal pain tests record how soon the animal reacts.

The test system of data set [2] is male ICR mice. As to the kind of experiment: Tolerance: tail flick ED50 after 3-day chronic ICV infusion (osmotic minipump). Format: in vivo, mouse. The conditions noted are these: for tolerance on chronic ICV administration: 3-day ICV infusion; for Chronic ED50 nmol (95% C.L.): compound chronically administered ICV for 3 days, then challenge doses; for Saline ED50 nmol (95% C.L.): saline chronically administered ICV for 3 days, then challenge doses of compound; for fold increase in ED50 value after chronic ICV infusion: three-day ICV infusion. As to the method: (§1) Chronic administration To investigate tolerance and dependence associated with these conjugates, chronic ICV administration studies were performed. The compound of interest was administered ICV via a cannula using an osmotic minipump for 3 days, as previously described (Gomori et al., 2003; Mashiko et al., 2003). Withdrawal was measured by administering naloxone (1 mg/kg; subcutaneous (sc)) and counting the naloxone-precipitated jumps for 10 minutes. Tolerance was determined by administering challenge doses of the compound after chronic infusion for 3 days, and determining the chronic ED50 value at that time.
(§2) Chronic ICV infusion. Osmotic minipumps (model 1003D, Alzet, Durect Corporation, Cupertino, Calif.) were filled with saline or the drug to be tested. The dose of each drug was twelve times its ED50 (nmol)/hour. The minipumps were connected by a 1.6-1.8 cm length of PE-60 tubing to a 3-mm long cannula (osmotic pump connector cannula, Plastics One, Roanoke, Va.) and primed in sterile saline at 37° C. overnight.
(§3) The next day, mice were anesthetized with Avertin (2,2,2-tribromoethanol (370 mg/kg, IP)/tert amyl alcohol (0.16 mg/kg, IP)) before surgery. The scalp was shaved and an incision was made along the midline of the scalp. Hemostats were used to make a pocket under the skin between the shoulder blades. The skull was scraped clean of periosteum so that the cannula pedestal would properly adhere to the skull. A micro drill (Fine Science Tools Inc., Foster City, Calif.) was used to drill a hole approximately 1.6 mm lateral and 0.6 mm caudal to bregma. The minipump was placed between the shoulder blades, the cannula was inserted in the drilled hole into the lateral ventricle, and the cannula pedestal was affixed to the skull with cyanoacrylate glue. The animals were allowed to recover on a heating pad (Fine Science Tools, Foster City, Calif.) and were returned to their cages in the animal facility for three days.
To test the degree of tolerance developed, the osmotic minipump was removed and the mice were returned to their cages for four hours. The mice were then injected with the test drug into the contralateral lateral cerebral ventricle and antinociception was measured with the tail flick test as described above.

Data set [3] has as its system male ICR mice. Briefly: Physical dependence: naloxone-precipitated withdrawal jumping after chronic ICV infusion. The conditions noted are these: for physical dependence on chronic ICV administration: 3-day ICV infusion, naloxone-precipitated jumping; for # of Jumps (SEM), naloxone-precipitated withdrawal: average jumps in 10 minutes after naloxone 1 mg/kg sc, after 3-day ICV infusion. Format: in vivo, mouse. How it is done:
as §1, §2, §3
Testing for dependence and tolerance. The development of physical dependence was assessed by quantifying withdrawal jumping observed during precipitated withdrawal (Way et al., 1969) on the fourth day after surgery. Mice were injected with naloxone (1 mg/kg, sc) and placed into Plexiglas cylinders for 10 minutes. During those 10 minutes, vertical jumps were counted as withdrawal signs.

For data set [4], the system named is male ICR mice. Briefly: Mouse tail flick assay after IV administration. The conditions noted are these: tail flick, IV. As to the method: Antinociceptive testing. Antinociception was evaluated by the radiant heat tail flick assay (D'Amour et al., 1941). Briefly, a beam of light was focused on the mouse tail and the time until the tail flicked was measured. Each animal served as its own control and was used only once. Mice were tested once before injection (control time). After injection, the mice were tested at the time of peak drug response (drug time), as determined by pilot time course studies. The light intensity was adjusted so that control times were between 1.5 and 2.5 s. A 10 second cutoff drug time was set to minimize the risk of tissue damage. Percent maximum possible effect (% MPE) was calculated as follows (Dewey et al., 1970): […]
Graded dose response curves of at least 4 doses with at least 8 mice per dose were generated from the % MPE data.
Methods Drugs were administered IV via the tail vein in a volume of 100 μl to male ICR mice. Fifteen minutes later, antinociception was measured by the tail flick assay and charcoal meal (300 μl, oral) was administered by gavage. Thirty minutes after the charcoal meal., the mice were sacrificed by halothane overdose and the distance the charcoal traveled relative to the entire length of the GI tract was compared to the distance traveled in control animals injected with saline. The conjugates tested (MDAN-16, MDAN-19, MDAN-20, and MDAN-21) had linker lengths of 19, 23, 24, and 25 Å.

Consider `CN1CCC23c4c5ccc(O)c4OC2C(NC(=O)COCC(=O)NCCCNC(=O)COCC(=O)Nc2cccc4c6c([nH]c24)C2Oc4c(O)ccc7c4C24CCN(CC2CC2)C(C7)C4(O)C6)CCC3(O)C1C5` (stereo not drawn) [Compound 4], for which the “ED50 nmol (95% C.L.), antinociceptive potency” value in the data set on male ICR mice [1] was 1.49 (1.04-1.95) nmol. In the data set on male ICR mice [2] (listed as MDAN-17), the “tolerance on chronic ICV administration” value is “produced tolerance; also recorded: tolerance without physical dependence developed”. In addition, in the data set on male ICR mice [2], the “Chronic ED50 nmol (95% C.L.)” value is reported as 5.61 (4.39-6.83) nmol, the “Saline ED50 nmol (95% C.L.)” value was 1.54 (0.89-2.20) nmol and the “fold increase in ED50 value after chronic ICV infusion” value (“fold increase in ED50 value” for short) came out at 3.6 fold. Besides, in the data set on male ICR mice [3] (listed as MDAN-17), the “physical dependence on chronic ICV administration” value (from here on “physical dependence”) is “without producing dependence; also recorded: without physical dependence” and the “# of Jumps (SEM), naloxone-precipitated withdrawal” value (“# of Jumps (SEM)” for short) stood at 0.94. In the data set with male ICR mice [3], the “# of Jumps (SEM)” value is listed as 0.9 (0.7).

`CN1CCC23c4c5ccc(O)c4OC2C(NC(=O)COCC(=O)NCCCCNC(=O)COCC(=O)Nc2cccc4c6c([nH]c24)C2Oc4c(O)ccc7c4C24CCN(CC2CC2)C(C7)C4(O)C6)CCC3(O)C1C5` (stereo not drawn) [Compound 5]: in the data set on male ICR mice [1], the “ED50 nmol (95% C.L.), antinociceptive potency” value is listed as 0.95 (0.68-1.23) nmol. In addition, in the data set with male ICR mice [2] (listed as MDAN-18), the “tolerance on chronic ICV administration” value is given as “produced tolerance; also recorded: tolerance without physical dependence developed”. In addition, in the data set with male ICR mice [2], the “Chronic ED50 nmol (95% C.L.)” value is given as 4.75 (3.50-6.00) nmol, the “Saline ED50 nmol (95% C.L.)” value is listed as 1.29 (0.97-1.61) nmol and the “fold increase in ED50 value” value worked out at 3.7 fold. For the same molecule, in the data set on male ICR mice [3] (listed as MDAN-18), the “physical dependence” value is “without producing dependence; also recorded: without physical dependence” and the “# of Jumps (SEM)” value is given as 8.9. For the same molecule, the “# of Jumps (SEM)” value in the data set with male ICR mice [3] is listed as 8.9 (3.0).

Consider `CN1CCC23c4c5ccc(O)c4OC2C(NC(=O)COCC(=O)NCCCCCCNC(=O)COCC(=O)Nc2cccc4c6c([nH]c24)C2Oc4c(O)ccc7c4C24CCN(CC2CC2)C(C7)C4(O)C6)CCC3(O)C1C5` (stereo not drawn) [Compound 7, 7′-{2-[(6-{2-[({(5α,6α)-4,5-Epoxy-3,14-dihydroxy-17-methylmorphin-6-yl}-aminocarbonyl)-methoxy]-acetylamino}-hexylaminocarbonyl)-methoxy]-acetylamino}-naltrindole], for which, in the data set with male ICR mice [1], the “ED50 nmol (95% C.L.), antinociceptive potency” value is reported as 0.17 (0.15-0.19) nmol. Besides, the “tolerance on chronic ICV administration” value with male ICR mice [2] (listed as MDAN-20) is given as “no tolerance or dependence was observed; also recorded: produced no tolerance or physical dependence”. For the same molecule, in the data set on male ICR mice [2], the “Chronic ED50 nmol (95% C.L.)” value was 0.17 (0.13-0.21) nmol and the “Saline ED50 nmol (95% C.L.)” value was 0.17 (0.15-0.20) nmol. For the same molecule, the “physical dependence” value with male ICR mice [3] (listed as MDAN-20) was “no tolerance or dependence was observed; also recorded: produced no tolerance or physical dependence”. The “# of Jumps (SEM)” value with male ICR mice [3] is on record as 0.4 (0.4).

For the molecule `CNC(=O)COCC(=O)NCCNC(=O)COCC(=O)NC1CCC2(O)C3Cc4ccc(O)c5c4C2(CCN3C)C1O5` (stereo not drawn) [Compound 9, reference compound], in the data set with male ICR mice [1], the “Ligand ED50 pmol (95% C.L.), antinociceptive potency” value was found to be 39.39 pmol.

With `CNC(=O)COCC(=O)NCCCNC(=O)COCC(=O)NC1CCC2(O)C3Cc4ccc(O)c5c4C2(CCN3C)C1O5` (stereo not drawn) [Compound 10, reference compound], in the data set with male ICR mice [1], the “Ligand ED50 pmol (95% C.L.), antinociceptive potency” value is on record as 39.69 pmol.

On to `CNC(=O)COCC(=O)NCCCCCNC(=O)COCC(=O)NC1CCC2(O)C3Cc4ccc(O)c5c4C2(CCN3C)C1O5` (stereo not drawn) [Compound 12, reference compound], for which the “Ligand ED50 pmol (95% C.L.), antinociceptive potency” value in the data set on male ICR mice [1] is 39.45 pmol. Further, the “ED50 ICV (nmol)” value in the data set on male ICR mice [1] (tail flick, ICV, Table 2) is 0.04 (0.03-0.05) nmol. Further, in the data set on male ICR mice [4], the “ED50 IV (nmol)” value is given as 1.61 (1.29-1.92) nmol. In the data set on male ICR mice [2], the “tolerance on chronic ICV administration” value is “produced both antinociceptive tolerance and physical dependence”; the “Chronic ED50 nmol (95% C.L.)” value is reported as 0.22 (0.19-0.26) nmol; the “Saline ED50 nmol (95% C.L.)” value is reported as 0.04 (0.03-0.05) nmol; the “fold increase in ED50 value” value came out at 5.5 fold. In the data set with male ICR mice [3], the “physical dependence” value is “produced both antinociceptive tolerance and physical dependence”; the “# of Jumps (SEM)” value is 83 (13). Further, the “# of Jumps (SEM)” value in the data set on male ICR mice [3] (listed as MA-19) is on record as 83.

With `CNC(=O)COCC(=O)NCCCCCCNC(=O)COCC(=O)N[C@H]1CC[C@@]2(O)[C@H]3Cc4ccc(O)c5c4[C@@]2(CCN3C)[C@H]1O5` [Compound 13, (5α,6α)-6-{2-[(6-{2-[(Methylaminocarbonyl)-methoxy]-acetylamino}-hexylaminocarbonyl)-methoxy]-acetylamino}-4,5-epoxy-3,14-dihydroxy-17-methylmorphinan, reference compound], the “Ligand ED50 pmol (95% C.L.), antinociceptive potency” value in the data set on male ICR mice [1] turned out to be 37.25 pmol.

Take `CNC(=O)COCC(=O)NCCCCCCCNC(=O)COCC(=O)NC1CCC2(O)C3Cc4ccc(O)c5c4C2(CCN3C)C1O5` (stereo not drawn) [Compound 14, reference compound]: the “Ligand ED50 pmol (95% C.L.), antinociceptive potency” value with male ICR mice [1] is recorded as 43.56 pmol.
